Blank lines part the entries; values can stand above or below the compound they belong to.
Test system: B16F0 melanoma tumour
Assay: Biodistribution in B16 melanoma bearing mice
Type: in vivo, C57BL/6J mice
Conditions: for Organ distribution Intestine / Organ distribution Liver / Organ distribution Spleen / Organ distribution Stomach / Organ distribution Thyroid / Organ distribution Tumour: B16F0 tumour, mean ± S.D.
Method: Animal experiments were performed in compliance with the NHMRC Australian Code of Practice for the care and use of animals for scientific purposes. Female C57BL/6J black and BALB/c nude albino mice of 5 weeks age were obtained from the Animal Resources Centre, Western Australia. B16F0 murine melanoma cells were originally obtained from European Collection of Cell Cultures (UK) and A375 human amelanotic melanoma cells were originally obtained from American Type Culture Collection (USA). Before transplantation, B16F0 and A375 melanoma cells were maintained as a monolayer in RPMI culture medium supplemented with 10% foetal calf serum and antibiotics and passaged with trypsinisation. Early passages were frozen and stored in liquid nitrogen. Cells were passaged to P=10 and then discarded. Frozen aliquots were grown in a monolayer culture to between 80-95% confluence and for transplantation were trypsinised and washed with Ca^2+ and Mg^2+ free phosphate buffered saline (PBS). For inoculation, B16F0 melanoma cells were resuspended in Ca^2+ and Mg^2+ free PBS at 3 or 5×10^6 viable cells per ml and 0.1 ml was subcutaneously injected at the left flank of 6-7 weeks old C57BL/6J mice. Eleven days later, tumours could be palpated in >98% of inoculated animals. A375 human melanoma cells were resuspended at 1×10^7 viablecells per ml and 0.1 ml was injected subcutaneously at the left flank of 6 weeks old BALB/c nude mice and 25-26 days later tumours could be palpated with ˜60% of inoculated animals developing tumours.
Eleven days (B16F0 melanoma) and 25 days (A375 human melanoma) after tumour transplantation, the [^18F]nicotinamides (0.5-1.5 MBq, 100 μl) and [^123I]nicotinamide (0.37-0.74 MBq, 100 μl) derivatives were injected intravenously via the tail vein into mice (15-18 g). Time points of 1, 3, 6, 24, 48, 72 h after injection were chosen for determining the distribution of each compound in various organs and tissues for the iodine-123 labelled compounds and between 15 min and 6 hours (e.g. 15 min, 30 min, 1 h, 2 h, 4 h or 6 h) were chosen for the ^18F-labelled compounds. At defined times post injection, groups of mice (n=5) were weighed, sacrificed by CO2 administration followed by cervical dislocation and dissected. Selected organs were weighed and their radioactivity measured with a γ-counter. The remaining activity in the carcass was also determined in order to obtain the total activity in the mouse at defined time points. The fraction of injected activity (% ID) in the organ was calculated by comparison with suitable dilutions of the injected dose. Then, the radioactivity concentration in the organ (% ID/g) was found by dividing the % ID for each organ by the weight of the organ.

[1] = B16 tumour, C57BL/6J mice, 1 h, mean ± SD, n = 5
[2] = B16 tumour, C57BL/6J mice, 6 h, mean ± SD, n = 5
[3] = B16 tumour, C57BL/6J mice, 24 h, mean ± SD, n = 5
[4] = B16 melanoma bearing mice, 15 min

Organ distribution Intestine (C57BL/6J mice, 1 h, n = 5): 10 ± 1 % ID/organ
Organ distribution Liver (C57BL/6J mice, 1 h, n = 5): 2.7 ± 0.7 % ID/organ
Organ distribution Spleen (C57BL/6J mice, 1 h, n = 5): 0.31 ± 0.07 % ID/organ
Organ distribution Stomach (C57BL/6J mice, 1 h, n = 5): 9 ± 1 % ID/organ
Organ distribution Thyroid (C57BL/6J mice, 1 h, n = 5): 1.2 ± 0.7 % ID/organ
Organ distribution Tumour (C57BL/6J mice, 1 h, n = 5): 1.8 ± 0.4 % ID/organ
Organ distribution Intestine (C57BL/6J mice, 6 h, n = 5): 5 ± 1 % ID/organ
Organ distribution Liver (C57BL/6J mice, 6 h, n = 5): 1.3 ± 0.4 % ID/organ
Organ distribution Spleen (C57BL/6J mice, 6 h, n = 5): 0.17 ± 0.05 % ID/organ
Organ distribution Stomach (C57BL/6J mice, 6 h, n = 5): 7 ± 2 % ID/organ
Organ distribution Thyroid (C57BL/6J mice, 6 h, n = 5): 3.3 ± 0.8 % ID/organ
Organ distribution Tumour (C57BL/6J mice, 6 h, n = 5): 1.4 ± 0.8 % ID/organ
Organ distribution Intestine (C57BL/6J mice, 24 h, n = 5): 0.35 ± 0.03 % ID/organ
Organ distribution Liver (C57BL/6J mice, 24 h, n = 5): 0.19 ± 0.04 % ID/organ
Organ distribution Spleen (C57BL/6J mice, 24 h, n = 5): 0.01 ± 0.00 % ID/organ
Organ distribution Stomach (C57BL/6J mice, 24 h, n = 5): 0.4 ± 0.1 % ID/organ
Organ distribution Thyroid (C57BL/6J mice, 24 h, n = 5): 6.5 ± 2.8 % ID/organ
Organ distribution Tumour (C57BL/6J mice, 24 h, n = 5): 0.11 ± 0.06 % ID/organ
tumour standardized uptake value (SUVt) (B16 tumour, C57BL/6J mice, 1 h): 1.2 ± 0.1
Uptake Lung [1]: 4.8 ± 0.4 % ID/g
uptake BLOOD [1]: 6.9 ± 0.6 % ID/g
uptake BRAIN [1]: 0.36 ± 0.05 % ID/g
uptake HEART [1]: 2.3 ± 0.2 % ID/g
uptake KIDNEY [1]: 4.2 ± 0.6 % ID/g
uptake LIVER [1]: 3.1 ± 0.6 % ID/g
uptake TUMOUR [1]: 3.8 ± 0.2 % ID/g
tumour standardized uptake value (SUVt) (B16 tumour, C57BL/6J mice, 6 h): 1.0 ± 0.1
Uptake Lung [2]: 2.6 ± 0.8 % ID/g
uptake BLOOD [2]: 3.6 ± 1.0 % ID/g
uptake BRAIN [2]: 0.14 ± 0.04 % ID/g
uptake HEART [2]: 1.1 ± 0.3 % ID/g
uptake KIDNEY [2]: 2.4 ± 0.7 % ID/g
uptake LIVER [2]: 1.4 ± 0.5 % ID/g
uptake TUMOUR [2]: 2.3 ± 0.5 % ID/g
tumour standardized uptake value (SUVt) (B16 tumour, C57BL/6J mice, 24 h): 0.5 ± 0.2
Uptake Lung [3]: 0.2 ± 0.1 % ID/g
uptake BLOOD [3]: 0.25 ± 0.12 % ID/g
uptake BRAIN [3]: 0.02 % ID/g
uptake HEART [3]: 0.10 ± 0.05 % ID/g
uptake KIDNEY [3]: 0.18 ± 0.05 % ID/g
uptake LIVER [3]: 0.20 ± 0.04 % ID/g
uptake TUMOUR [3]: 0.26 ± 0.14 % ID/g
Compound: CCN(CC)CCNC(=O)c1ccc(I)nc1 [[^123I]14, N-(2-(Diethylamino)ethyl)-6-iodonicotinamide]

uptake BLOOD [4]: 0.68 % ID/g
uptake BONE [4]: 3.89 % ID/g
uptake BRAIN [4]: 0.84 % ID/g
uptake EYES [4]: 11.27 % ID/g
uptake GIT [4]: 8.23 % ID/g
uptake HEART [4]: 2.49 % ID/g
uptake KIDNEY [4]: 15.88 % ID/g
uptake LIVER [4]: 30.69 % ID/g
uptake LUNGS [4]: 12.06 % ID/g
uptake MUSCLE [4]: 2.83 % ID/g
uptake SKIN [4]: 2.53 % ID/g
uptake SPLEEN [4]: 11.19 % ID/g
uptake STOMACH [4]: 8.52 % ID/g
uptake THYROID [4]: 10.16 % ID/g
uptake TUMOUR [4]: 4.01 % ID/g
uptake BLOOD (B16 melanoma bearing mice, 1 h): 0.32 % ID/g
uptake BONE (B16 melanoma bearing mice, 1 h): 2.03 % ID/g
uptake BRAIN (B16 melanoma bearing mice, 1 h): 0.75 % ID/g
uptake EYES (B16 melanoma bearing mice, 1 h): 12.65 % ID/g
uptake GIT (B16 melanoma bearing mice, 1 h): 5.78 % ID/g
uptake HEART (B16 melanoma bearing mice, 1 h): 0.98 % ID/g
uptake KIDNEY (B16 melanoma bearing mice, 1 h): 4.64 % ID/g
uptake LIVER (B16 melanoma bearing mice, 1 h): 36.76 % ID/g
uptake LUNGS (B16 melanoma bearing mice, 1 h): 4.49 % ID/g
uptake MUSCLE (B16 melanoma bearing mice, 1 h): 1.00 % ID/g
uptake SKIN (B16 melanoma bearing mice, 1 h): 1.61 % ID/g
uptake SPLEEN (B16 melanoma bearing mice, 1 h): 7.38 % ID/g
uptake STOMACH (B16 melanoma bearing mice, 1 h): 3.31 % ID/g
uptake THYROID (B16 melanoma bearing mice, 1 h): 5.37 % ID/g
uptake TUMOUR (B16 melanoma bearing mice, 1 h): 4.79 % ID/g
uptake BLOOD (B16 melanoma bearing mice, 3 h): 0.21 % ID/g
uptake BONE (B16 melanoma bearing mice, 3 h): 1.41 % ID/g
uptake BRAIN (B16 melanoma bearing mice, 3 h): 0.57 % ID/g
uptake EYES (B16 melanoma bearing mice, 3 h): 14.28 % ID/g
uptake GIT (B16 melanoma bearing mice, 3 h): 4.18 % ID/g
uptake HEART (B16 melanoma bearing mice, 3 h): 0.71 % ID/g
uptake KIDNEY (B16 melanoma bearing mice, 3 h): 2.89 % ID/g
uptake LIVER (B16 melanoma bearing mice, 3 h): 32.81 % ID/g
uptake LUNGS (B16 melanoma bearing mice, 3 h): 3.08 % ID/g
uptake MUSCLE (B16 melanoma bearing mice, 3 h): 0.53 % ID/g
uptake SKIN (B16 melanoma bearing mice, 3 h): 1.09 % ID/g
uptake SPLEEN (B16 melanoma bearing mice, 3 h): 5.31 % ID/g
uptake STOMACH (B16 melanoma bearing mice, 3 h): 2.36 % ID/g
uptake THYROID (B16 melanoma bearing mice, 3 h): 2.92 % ID/g
uptake TUMOUR (B16 melanoma bearing mice, 3 h): 5.31 % ID/g
uptake BLOOD (B16 melanoma bearing mice, 6 h): 0.14 % ID/g
uptake BONE (B16 melanoma bearing mice, 6 h): 1.03 % ID/g
uptake BRAIN (B16 melanoma bearing mice, 6 h): 0.37 % ID/g
uptake EYES (B16 melanoma bearing mice, 6 h): 15.75 % ID/g
uptake GIT (B16 melanoma bearing mice, 6 h): 3.08 % ID/g
uptake HEART (B16 melanoma bearing mice, 6 h): 0.52 % ID/g
uptake KIDNEY (B16 melanoma bearing mice, 6 h): 1.80 % ID/g
uptake LIVER (B16 melanoma bearing mice, 6 h): 26.41 % ID/g
uptake LUNGS (B16 melanoma bearing mice, 6 h): 2.23 % ID/g
uptake MUSCLE (B16 melanoma bearing mice, 6 h): 0.36 % ID/g
uptake SKIN (B16 melanoma bearing mice, 6 h): 0.89 % ID/g
uptake SPLEEN (B16 melanoma bearing mice, 6 h): 4.11 % ID/g
uptake STOMACH (B16 melanoma bearing mice, 6 h): 1.79 % ID/g
uptake THYROID (B16 melanoma bearing mice, 6 h): 1.98 % ID/g
uptake TUMOUR (B16 melanoma bearing mice, 6 h): 5.29 % ID/g
Compound: CCCCN(C)CCCCNC(=O)c1ccc(F)nc1 [[^18F]MEL4, 6-Fluoro-N-[4-(butyl(methyl)amino)butyl]nicotinamide]
